For 18 compounds, IC50 results are on record in US5585382A, “Polycyclic and heterocyclic chromophores for bis-imide tumoricidals” (The DuPont Merck Pharmaceutical Company, priority 1995, dated 1996).

The test system of assay [1] is Murine leukemia L1210 cells. The experiment in a line: In vitro growth inhibition of L1210 cells (MTT, 72 hr). The conditions noted are these: Mus musculus, read-out: L1210 IC50. It counts as cell-based. The procedure:
(§1) The reagents for tissue culture were purchased from GIBCO (Grand Island, N.Y.). 5-Dimethylthiazol-2-yl)-2,5-diphenyl tetrazolium bromide (MTT) was purchased from Sigma Chemical Company (St. Louis, Mo.). All agents were prepared as 2 mg/ml stock solutions in DMSO. MTT was prepared as a 1 mg/ml stock solution in Dulbecco's phosphate buffered saline (PBS). All stocks were stored frozen in the dark at -20° C.
(§2) Clone A human colon cancer cells were isolated from the heterogeneous DLD-1 colon tumor line and maintained as previously described (Dexter, D. L.; Barbosa, J. A.; Calabresi, P. Cancer Research 1979, 39, 1020; Dexter, D. L.; Spremulli, E. M.; Fligiel, A.; Barbosa, J. A.; Vogel, R.; Van Vorhees, A.; Calabresi, P. Am. J. Med. 1981, 71, 949.). Murine leukemia L1210 cells were maintained in RPMI-L medium as described (Chen, S.-F.; Ruben, R. L.; Dexter, D. L. Cancer Research 1986, 46, 5014.). All cell lines were incubated at 37° C. in a humidified atmosphere of 5% CO2 -95% air.
(§3) Exponentially growing L1210 cells (1×10^3), or Clone A cells (8×10^2) in 0.1 ml medium were seeded in a 96-well microtiter plate on day 0. On day one, 0.1 ml aliquots of medium containing graded concentrations of test compounds were added to the cell plates. After incubation at 37° C. in a humidified incubator for 72 hr, the plates containing L1210 cells were centrifuged briefly and 100 μl of the growth medium was removed. Cell cultures were incubated with 50 μl of MTT for 4 h at 37° C. (12). The resulting purple formazan precipitate was solubilized with 200 μl of 0.04 N HCl in isopropyl alcohol. Absorbance was read in a Titertek Multiskan MCC scanning well spectrophotometer (Flow Laboratories) at a test wavelength of 570 nm and a reference wavelength of 630 nm. The absorbances were stored on a floppy disk on an IBM-XT and uploaded onto a VAX computer. IC50 values were determined by a computer program that fit the data to the following equation:
(§4) Y=((Am -Ao)/(1+(X/IC50)^n))+Ao
(§5) where Am =absorbance of the control cells; Ao =absorbance of the cells in the presence of highest compound concentration; Y=observed absorbance; X=compound concentration; IC50 =dose of compound that inhibits the number of population doublings of cells to one half that of the number of population doublings of the control cells; and n equals the slope of the straight portion of the curve.
(§6) The values reported in the table are from at least one experiment performed in eight replicates. If more than one experiment was performed, the number reported is the average of all the trials

For assay [2], the system named is Clone A human colon cancer cells. As to the kind of experiment: In vitro growth inhibition of Clone A cells (MTT, 72 hr). It counts as cell-based. As to conditions: read-out: Clone A IC50. How it is done:
as §1, §2, §3, §4, §5, §6

Values after ≈ are worked out from the molar mass of the structure shown. Where two headings read alike, the source gives them in different places.

For `CS(=O)(=O)O.CS(=O)(=O)O.C[C@H](CNCCNC[C@@H](C)N1C(=O)c2cccc3c4c(cc(c23)C1=O)C(=O)c1ccccc1C4=O)N1C(=O)c2cccc3c4c(cc(c23)C1=O)C(=O)c1ccccc1C4=O` [Example 101, (R,R)-1,2-bis-[2-(7,12-Dihydro-7,12-dioxobenz[a]anthracene-4,5-dicarboximido)propylamino]ethane Dihydromethanesulfonate], the IC50 in assay [1] (L1210 cells, 72 hr, MTT) was 0.105 µg/mL; in assay [2] (Clone A cells, 72 hr, MTT), 0.05 µg/mL.
As for `CS(=O)(=O)O.Cc1ccc2cc3c4c(cccc4c2c1)C(=O)N(CCCCNCCCN1C(=O)c2cccc4c2c(cc2ccc(C)cc24)C1=O)C3=O` [Example 41, 4-[3-(6-Methylphenanthrene-1,10-dicarboximido)propylamino]-1-(6-methylphenanthrene-1, 10-dicarboximido)butane Hydromethanesulfonate], the IC50 turned out to be 0.317 µg/mL in assay [1] (L1210, 72 h) and 0.804 µg/mL in assay [2] (72 h).
Consider `C[C@H](CNCCNC[C@@H](C)N1C(=O)c2cccc3c2c(cc2ccc(C(F)(F)F)cc23)C1=O)N1C(=O)c2cccc3cc([N+](=O)[O-])cc(c23)C1=O` [Example 121], for which the IC50 in assay [1] (L1210, 72 h) turned out to be 0.397 µg/mL (≈ 0.569 µM); in assay [2] (72 h) it was 0.032 µg/mL (≈ 0.0459 µM).
In the case of `CS(=O)(=O)O.CS(=O)(=O)O.C[C@H](CNCCNC[C@@H](C)N1C(=O)c2cccc3c2c(cc2cccnc23)C1=O)N1C(=O)c2cccc3cc([N+](=O)[O-])cc(c23)C1=O` [Example 110, (R,R)-1-[2-(5-Azaphenanthrene-1,10-dicarboximido)propylamino]-2-[2-(3-nitronaphthalene-1,8-dicarboximido)propylamino]ethane Dihydromethanesulfonate], the IC50 is 0.183 µg/mL in assay [1] (L1210 cells, 72 hr, MTT) and 0.006 µg/mL in assay [2] (Clone A cells, 72 hr, MTT).
Take `COc1ccc2cc3c4c(cccc4c2c1)C(=O)N([C@H](C)CNCCNC[C@@H](C)N1C(=O)c2cccc4cc([N+](=O)[O-])cc(c24)C1=O)C3=O` [Example 122]: the IC50 in assay [1] (L1210, 72 h) stood at 0.211 µg/mL (≈ 0.32 µM); in assay [2] (72 h), 0.023 µg/mL (≈ 0.0349 µM).
On the same counts, the results for `O=C1c2cccc3c2c(c(-c2ccccc2)c2ccccc23)C(=O)N1CCCCNCCCN1C(=O)c2cccc3c2c(c(-c2ccccc2)c2ccccc23)C1=O` [Example 48, 4-[3-(9-Phenylphenanthrene-1,10-dicarboximido)propylamino]-1-(9-phenylphenanthrene-1, 10-docarboximido)butane Hydromethanesulfonate] are 0.773 µg/mL and 1.46 µg/mL.
For the compound `CS(=O)(=O)O.CS(=O)(=O)O.C[C@H](CNCCNC[C@@H](C)N1C(=O)c2cccc3c2c(cc2cnccc23)C1=O)N1C(=O)c2cccc3cc([N+](=O)[O-])cc(c23)C1=O` [Example 113, (R,R)-1-[2-(7-Azaphenanthrene-1,10-dicarboximido)propylamino]-2-[2-(3-nitronaphthalene-1,8-dicarboximido)propylamino]ethane Dihydromethanesulfonate], the IC50 in assay [1] (L1210 cells, 72 hr, MTT) amounted to 0.008 µg/mL; in assay [2] (Clone A cells, 72 hr, MTT), 0.0003 µg/mL.
For `CS(=O)(=O)O.Cc1cnc2c(c1)cc1c3c(cccc32)C(=O)N(CCCCNCCCN2C(=O)c3cccc4c3c(cc3cc(C)cnc34)C2=O)C1=O` [Example 10, 4-[3-(7-Methyl-5-azaphenanthrene-1,10-dicarboximido)propylamino]-1-(7-methyl-5-azaphenanthrene-1, 10-dicarboximido)butane Hydromethanesulfonate], the IC50 in assay [1] (L1210 cells, 72 hr, MTT) turned out to be 0.588 µg/mL; in assay [2] (Clone A cells, 72 hr, MTT), 0.346 µg/mL.
Regarding `CS(=O)(=O)O.O=C1c2cccc3c2c(cc2cc([N+](=O)[O-])cnc23)C(=O)N1CCCCNCCCN1C(=O)c2cccc3c2c(cc2cc([N+](=O)[O-])cnc23)C1=O` [Example 11, 4-[3-(7-Nitro-5-azaphenanthrene-1,10dicarboximido)propylamino]-1-(7-nitro-5-azaphenanthrene-1, 10-dicarboximido)butane Hydromethanesulfonate], the IC50 in assay [1] (L1210, 72 h) was 0.171 µg/mL; in assay [2] (72 h), 0.543 µg/mL.
For `CS(=O)(=O)O.CS(=O)(=O)O.Cc1nc2cc3c4c(cccc4c2s1)C(=O)N([C@H](C)CNCCNC[C@@H](C)N1C(=O)c2cccc4c2c(cc2nc(C)sc24)C1=O)C3=O` [Example 83, (R,R) -1,2-bis-[2-(2-Methylnaphtho[2,1-d]thiazole-5,6-dicarboximido)propylamino]ethane Dihydromethanesulfonate], the IC50 in assay [1] (L1210 cells, 72 hr, MTT) is less than 0.01 µg/mL; in assay [2] (Clone A cells, 72 hr, MTT), 0.004 µg/mL.
`O=C1c2cc([N+](=O)[O-])cc3c2c(cc2cnccc23)C(=O)N1CCCCNCCCN1C(=O)c2cc([N+](=O)[O-])cc3c2c(cc2cnccc23)C1=O` [Example 16, 4-[3-(3-Nitro-7-azaphenanthrene-1,10-dicarboximido)propylamino]-1-(3-nitro-7-azaphenanthrene-1, 10-dicarboximido)butane 2.6-Hydromethanesulfonate]: the IC50 in assay [1] (L1210, 72 h) is less than 0.01 µg/mL; in assay [2] (72 h) it was 0.002 µg/mL (≈ 0.00287 µM).
In the same order, the values of `COc1cc2cc3c4c(cccc4c2cc1OC)C(=O)N(CCCCNCCCN1C(=O)c2cccc4c2c(cc2cc(OC)c(OC)cc24)C1=O)C3=O.CS(=O)(=O)O` [Example 55, 4-[3-(6,7-Dimethoxyphenanthrene-1,10-dicarboximido)propylamino]-1-(6,7-dimethoxyphenanthrene-1,10-dicarboximido)butane Hydromethanesulfonate] are 0.356 µg/mL and 5.43 µg/mL.
Turning to `CS(=O)(=O)O.O=C1c2cc([N+](=O)[O-])cc3c2c(cc2ccccc23)C(=O)N1CCCCNCCCN1C(=O)c2cc([N+](=O)[O-])cc3c2c(cc2ccccc23)C1=O` [Example 50, 4-[3-(3-Nitrophenanthrene-1,10-dicarboximido)propylamino]-1-(3-nitrophenanthrene-1, 10-dicarboximido)butane Hydromethanesulfonate], the IC50 is 0.126 µg/mL in assay [1] (L1210, 72 h) and 0.032 µg/mL in assay [2] (72 h).
Take `CS(=O)(=O)O.O=C1c2cccc3c2c(cc2cccc([N+](=O)[O-])c23)C(=O)N1CCCCNCCCN1C(=O)c2cccc3c2c(cc2cccc([N+](=O)[O-])c23)C1=O` [Example 51, 4-[3-(5-Nitrophenanthrene-1,10-dicarboximido)propylamino]-1-(5-nitrophenanthrene-1, 10-dicarboximido)butane Hydromethanesulfonate]: the IC50 worked out at 0.205 µg/mL in assay [1] (L1210, 72 h) and 0.747 µg/mL in assay [2] (72 h).
In the same order, the values of `CS(=O)(=O)O.CS(=O)(=O)O.C[C@H](CNCCNC[C@@H](C)N1C(=O)c2cc([N+](=O)[O-])cc3c2c(cc2ncccc23)C1=O)N1C(=O)c2cccc3cc([N+](=O)[O-])cc(c23)C1=O` [Example 116, (R,R)-1-[2-(3-Nitro-8-azaphenanthrene-1,10-dicarboximido)propylamino]-2-[2-(3-nitronaphthalene-1,8-dicarboximido)propylamino]ethane Dihydromethanesulfonate] are 0.012 µg/mL and 0.003 µg/mL.
For `COc1ccc2c(c1)cc1c3c(cccc32)C(=O)N(CCCCNCCCN2C(=O)c3cccc4c3c(cc3cc(OC)ccc34)C2=O)C1=O.CS(=O)(=O)O` [Example 54, 4-[3-(7-Methoxyphenanthrene-1,10-dicarboximido)propylamino]-1-(7-methoxyphenanthrene-1,10-dicarboximido)butane Hydromethanesulfonate], the IC50 in assay [1] (L1210, 72 h) was 0.198 µg/mL; in assay [2] (72 h), 0.615 µg/mL.
On to `CS(=O)(=O)O.O=C1c2cccc3c2c(c(C(F)(F)F)c2ccccc23)C(=O)N1CCCCNCCCN1C(=O)c2cccc3c2c(c(C(F)(F)F)c2ccccc23)C1=O` [Example 45, 4-(3-[9-(Trifluoromethyl)phenanthrene-1,10-dicarboximido]propylamino)-1-[9-(trifluoromethyl)phenanthrene-1,10-dicarboximido]butane Hydromethanesulfonate], for which the IC50 in assay [1] (L1210, 72 h) amounted to 0.3 µg/mL; in assay [2] (72 h) it was 1.05 µg/mL.
Regarding `CS(=O)(=O)O.O=C1c2cccc3c2c(cc2occc23)C(=O)N1CCCCNCCCN1C(=O)c2cccc3c2c(cc2occc23)C1=O` [Example 90, 4-[3-(Naphtho[2,1-b]furan-5,6-dicarboximido)propylamino]-1-(naphtho[2,1-b]furan-5,6-dicarboximido)butane Hydromethanesulfonate], the IC50 in assay [1] (L1210 cells, 72 hr, MTT) amounted to 0.013 µg/mL; in assay [2] (Clone A cells, 72 hr, MTT), 0.017 µg/mL.
